Test results as given in patent publication US11109592B2, “Selective weed control methods” (Corteva Agriscience LLC, priority 2013, dated 2021).
Like-named read-outs stand apart in the source and are kept apart here.

How the values were obtained:
[1] = tested on: spring kale (Brassica oleracea); assay: Field trial, crop injury to spring kale, post-emergence; type: in vivo; conditions: B12-B16 crop stage
Description: Data from the trials on spring kale (Brassica oleracea) are summarized Table 4.

[2] = tested on: Winfred forage brassica (Brassica rapa × oleracea); assay: Field trial, crop injury to Winfred forage brassica, post-emergence; type: in vivo; conditions: B14-B16 crop stage, Australia
[3] = tested on: common lambsquarters (Chenopodium album L.); assay: Field trial in sugar beet, visual control of common lambsquarters; type: in vivo; conditions: 36 days following last application
Description: (§1) As used herein, selective post-emergent control of undesirable vegetation means preventing, reducing, killing, or otherwise adversely modifying the development of the undesirable vegetation in the presence of crop plants with limited adverse effect on the crop plants. For example, a broadleaf weed control of 80% (rated visually) with crop injury of less than or equal to 20%, rated visually, would constitute selective control. In some embodiments the adverse effect on crop plants is limited to less than 10% visually rated crop injury. […] Visual weed control is a composite rating accounting for reductions in pest plant biomass and/or stand reduction.
(§2) Treatments 4 and 5 were split applications at the two indicated growth stages.

[4] = tested on: wild buckwheat (Polygonum convolvulus L.); assay: Field trial in sugar beet, visual control of wild buckwheat; type: in vivo; conditions: 36 days following last application
Description: as §1, §2

[5] = tested on: Juncea canola (Brassica juncea); conditions: for Percent (%) Crop Injury (Mean Value): B12-B14 crop stage; for injury to Juncea canola, on average did not exceed: five field trials
[6] = tested on: spring turnip (Brassica rapa); conditions: for Percent (%) Crop Injury (Mean Value): B12-B16 crop stage; for injury to turnip, on average did not exceed: three field trials
[7] = tested on: spring rutabaga (Brassica napus); conditions: for Percent (%) Crop Injury (Mean Value): B12-B14 crop stage; for injury to rutabaga, on average did not exceed: three field trials
[8] = tested on: spring sorghum (Sorghum vulgare); assay: Field trial, crop injury to spring sorghum, post-emergence; conditions: B17-B22 crop stage
[9] = tested on: spring sunflower (Helianthus annuus); assay: Field trial, crop injury to spring sunflower, post-emergence; conditions: B12-B14 crop stage, Australia
[10] = tested on: yellow mustard (Sinapis alba); assay: Field trial, crop injury to and yield of yellow mustard, post-emergence; conditions: B14-B15 crop stage
[11] = tested on: certain members of the Amaranthaceae, Asteraceae, Lamiaceae, Rubiaceae, Papaveraceae and Brassicaceae families; assay: Herbicidal activity (LD90) on plant families; type: in vivo; conditions: grams acid equivalent per hectare
[12] = tested on: broadleaf weeds including cleavers (Galium aparine), chickweed (Stellaria media), pigweed (Amaranthus spp.), lamb's-quarters (Chenopodium album) and others; assay: Efficacy on commercially relevant broadleaf weeds; type: in vivo; conditions: application rate of 2.5 to 10 g ae/ha
[13] = tested on: sunflowers, sorghum, yellow mustard, Brassicaceae-family crops, and sugar beets; assay: Overall crop safety, post-emergence application; type: in vivo; conditions: post-emergence application rates of ≤10 g ae/ha
[14] = rate 2.5 (g ae/ha), 1 week after application
[15] = rate 2.5, 3-5 weeks after application
[16] = rate 5, 1 week after application
[17] = rate 5, 3-5 weeks after application
[18] = rate 10, 1 week after application
[19] = rate 10, 3-5 weeks after application
[20] = rate 20, 1 week after application
[21] = rate 2.5, 6-10 weeks after application
[22] = rate 5, 6-10 weeks after application
[23] = rate 10, 6-10 weeks after application
[24] = rate 20, 3-5 weeks after application
[25] = treatment 1: 1.0 g ae/ha at BEAVA stage B12-B16
[26] = treatment 2: 2.0 g ae/ha at BEAVA stage B12-B16
[27] = treatment 3: 3.0 g ae/ha at BEAVA stage B12-B16
[28] = treatment 4: split application 0.5 g ae/ha at B10-B12 and 0.5 g ae/ha at B12-B16
[29] = treatment 5: split application 1.0 g ae/ha at B10-B12 and 1.0 g ae/ha at B12-B16
[30] = rate 20, 6-10 weeks after application
[31] = rate 2.5 (g ae/ha), 3-5 weeks after application

Structure (SMILES): COC(=O)c1nc(-c2ccc(Cl)c(OC)c2F)cc(N)c1Cl [4-Amino-3-chloro-6-(4-chloro-2-fluoro-3-methoxyphenyl)pyridine-2-carboxylic acid methyl ester]
- Percent (%) Crop Injury (Mean Value) [1, 14]: 2.5%
- Percent (%) Crop Injury (Mean Value) [1, 15]: 0%
- Percent (%) Crop Injury (Mean Value) [1, 16]: 1.3%
- Percent (%) Crop Injury (Mean Value) [1, 17]: 1.3%
- Percent (%) Crop Injury (Mean Value) [1, 18]: 2.5%
- Percent (%) Crop Injury (Mean Value) [1, 19]: 3.8%
- Percent (%) Crop Injury (Mean Value) [1, 20]: 15%
- Percent (%) Crop Injury (Mean Value) [2, 21]: 7.5%
- Percent (%) Crop Injury (Mean Value) [2, 17]: 9.2%
- Percent (%) Crop Injury (Mean Value) [2, 22]: 7.5%
- Percent (%) Crop Injury (Mean Value) [2, 19]: 8.8%
- Percent (%) Crop Injury (Mean Value) [2, 23]: 0%
- Percent (%) Crop Injury (Mean Value) [2, 24]: 11.3%
- Percent (%) Visual Control CHEAL [3, 25]: 35%
- Percent (%) Visual Control CHEAL [3, 26]: 98%
- Percent (%) Visual Control CHEAL [3, 27]: 95.8%
- Percent (%) Visual Control CHEAL [3, 28]: 30%
- Percent (%) Visual Control CHEAL [3, 29]: 96.8%
- Percent (%) Visual Control POLCO [4, 25]: 5%
- Percent (%) Visual Control POLCO [4, 26]: 22.5%
- Percent (%) Visual Control POLCO [4, 27]: 60%
- Percent (%) Visual Control POLCO [4, 28]: 20%
- Percent (%) Visual Control POLCO [4, 29]: 35%
- Percent (%) Crop Injury (Mean Value) [5, 14]: 2.5%
- Percent (%) Crop Injury (Mean Value) [5, 15]: 7.5%
- Percent (%) Crop Injury (Mean Value) [5, 21]: 5%
- Percent (%) Crop Injury (Mean Value) [5, 16]: 3.8%
- Percent (%) Crop Injury (Mean Value) [5, 17]: 10.5%
- Percent (%) Crop Injury (Mean Value) [5, 22]: 11.3%
- Percent (%) Crop Injury (Mean Value) [5, 18]: 3.8%
- Percent (%) Crop Injury (Mean Value) [5, 19]: 5.5%
- Percent (%) Crop Injury (Mean Value) [5, 23]: 3.8%
- Percent (%) Crop Injury (Mean Value) [5, 20]: 30%
- Percent (%) Crop Injury (Mean Value) [5, 24]: 13.8%
- Percent (%) Crop Injury (Mean Value) [5, 30]: 0%
- Percent (%) Crop Injury (Mean Value) [6, 14]: 2.5%
- Percent (%) Crop Injury (Mean Value) [6, 15]: 2.5%
- Percent (%) Crop Injury (Mean Value) [6, 16]: 5%
- Percent (%) Crop Injury (Mean Value) [6, 17]: 1.3%
- Percent (%) Crop Injury (Mean Value) [6, 18]: 7.5%
- Percent (%) Crop Injury (Mean Value) [6, 19]: 7.5%
- Percent (%) Crop Injury (Mean Value) [6, 24]: 7.5%
- Percent (%) Crop Injury (Mean Value) [7, 14]: 6.3%
- Percent (%) Crop Injury (Mean Value) [7, 15]: 3.8%
- Percent (%) Crop Injury (Mean Value) [7, 16]: 10%
- Percent (%) Crop Injury (Mean Value) [7, 17]: 3.3%
- Percent (%) Crop Injury (Mean Value) [7, 18]: 15%
- Percent (%) Crop Injury (Mean Value) [7, 19]: 7.5%
- Percent (%) Crop Injury (Mean Value) [7, 20]: 27.5%
- Percent (%) Crop Injury (Mean Value) [7, 24]: 15%
- Percent (%) Crop Injury (Mean Value) [8, 31]: 8.3%
- Percent (%) Crop Injury (Mean Value) [8, 21]: 13.3%
- Percent (%) Crop Injury (Mean Value) [8, 17]: 11.7%
- Percent (%) Crop Injury (Mean Value) [8, 22]: 18.3%
- Percent (%) Crop Injury (Mean Value) [8, 19]: 18.3%
- Percent (%) Crop Injury (Mean Value) [8, 23]: 15%
- Percent (%) Crop Injury (Mean Value) [8, 24]: 13.3%
- Percent (%) Crop Injury (Mean Value) [8, 30]: 15%
- Percent (%) Crop Injury (Mean Value) [9, 31]: 6.7%
- Percent (%) Crop Injury (Mean Value) [9, 21]: 6.7%
- Percent (%) Crop Injury (Mean Value) [9, 17]: 13.3%
- Percent (%) Crop Injury (Mean Value) [9, 22]: 11.7%
- Percent (%) Crop Injury (Mean Value) [9, 19]: 15%
- Percent (%) Crop Injury (Mean Value) [9, 23]: 8.3%
- Percent (%) Crop Injury (Mean Value) [9, 24]: 22.3%
- Percent (%) Crop Injury (Mean Value) [9, 30]: 6.7%
- Percent (%) Crop Injury (Mean Value of Four Observations) [10, 14]: 8.5%
- Percent (%) Crop Injury (Mean Value of Four Observations) ([10]; rate 2.5, 2 weeks after application): 4.8%
- Percent (%) Crop Injury (Mean Value of Four Observations) [10, 15]: 4.5%
- Percent (%) Crop Injury (Mean Value of Four Observations) [10, 16]: 14.3%
- Percent (%) Crop Injury (Mean Value of Four Observations) ([10]; rate 5, 2 weeks after application): 10%
- Percent (%) Crop Injury (Mean Value of Four Observations) [10, 17]: 7.5%
- Percent (%) Crop Injury (Mean Value of Four Observations) [10, 18]: 21.3%
- Percent (%) Crop Injury (Mean Value of Four Observations) ([10]; rate 10, 2 weeks after application): 25%
- Percent (%) Crop Injury (Mean Value of Four Observations) [10, 19]: 16.3%
- Percent (%) Crop Injury (Mean Value of Four Observations) [10, 20]: 23.8%
- Percent (%) Crop Injury (Mean Value of Four Observations) ([10]; rate 20, 2 weeks after application): 35%
- Percent (%) Crop Injury (Mean Value of Four Observations) [10, 24]: 25%

Structure (SMILES): COc1c(Cl)ccc(-c2cc(N)c(Cl)c(C(=O)O)n2)c1F [Compound I, 4-amino-3-chloro-6-(4-chloro-2-fluoro-3-methoxyphenyl)pyridine-2-carboxylic acid]
- LD90 [11]: ≤ 10 g ae/ha
- efficacy on commercially relevant broadleaf weeds [12]: highly efficacious
- crop injury [13]: little to no crop injury
- injury to Juncea canola, on average did not exceed ([5]; 2.5 g ae/ha): ≤ 7.5%
- injury to Juncea canola, on average did not exceed ([5]; 5 g ae/ha): ≤ 11.3%
- injury to Juncea canola, on average did not exceed ([5]; 10 g ae/ha): ≤ 5.5%
- injury to turnip, on average did not exceed ([6]; 2.5 g ae/ha): ≤ 2.5%
- injury to turnip, on average did not exceed ([6]; 5 g ae/ha): ≤ 5%
- injury to turnip, on average did not exceed ([6]; 10 g ae/ha): ≤ 7.5%
- injury to rutabaga, on average did not exceed ([7]; 2.5 g ae/ha): ≤ 6.3%
- injury to rutabaga, on average did not exceed ([7]; 5 g ae/ha): ≤ 10%
- injury to rutabaga, on average did not exceed ([7]; 10 g ae/ha): ≤ 15%
